Source: PubChem BioAssay (NCI)
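Cells were grown in 96-well plates and exposed to each compound for 48 hours at five concentrations; endpoints were interpolated linearly between bracketing concentrations, or set to the highest concentration if not reached. GI50 marks 50% less growth. TGI denotes the concentration required for complete inhibition of growth.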

What was measured:
Assay in all cases: inhibition of tumour cell growth, NCI panel, 48 h
[1] = tested on: 786-0 renal
[2] = tested on: A498 renal
[3] = tested on: A549 NSCLC
[4] = tested on: ACHN renal
[5] = tested on: BT-549 breast
[6] = tested on: CAKI-1 renal
[7] = tested on: CCRF-CEM leukemia
[8] = tested on: COLO 205 colon
[9] = tested on: DU-145 prostate
[10] = tested on: EKVX NSCLC
[11] = tested on: HCC-2998 colon
[12] = tested on: HCT-116 colon
[13] = tested on: HCT-15 colon
[14] = tested on: HL-60(TB) leukemia
[15] = tested on: HOP-62 NSCLC
[16] = tested on: HOP-92 NSCLC
[17] = tested on: HS 578T breast
[18] = tested on: HT29 colon
[19] = tested on: IGROV1 ovarian
[20] = tested on: K-562 leukemia
[21] = tested on: KM12 colon
[22] = tested on: LOX IMVI melanoma
[23] = tested on: M14 melanoma
[24] = tested on: MALME-3M melanoma
[25] = tested on: MCF7 breast
[26] = tested on: MDA-MB-231 breast
[27] = tested on: MDA-MB-435
[28] = tested on: MOLT-4 leukemia
[29] = tested on: NCI-H226 lung
[30] = tested on: NCI-H23 lung
[31] = tested on: NCI-H460 lung
[32] = tested on: NCI-H522 lung
[33] = tested on: NCI/ADR-RES ovarian
[34] = tested on: OVCAR-3 ovarian
[35] = tested on: OVCAR-4 ovarian
[36] = tested on: OVCAR-5 ovarian
[37] = tested on: OVCAR-8 ovarian
[38] = tested on: PC-3 prostate
[39] = tested on: RPMI-8226 leukemia
[40] = tested on: RXF 393 renal
[41] = tested on: SF-268 CNS
[42] = tested on: SF-295 CNS
[43] = tested on: SF-539 CNS
[44] = tested on: SK-MEL-2 melanoma
[45] = tested on: SK-MEL-28 melanoma
[46] = tested on: SK-MEL-5 melanoma
[47] = tested on: SK-OV-3 ovarian
[48] = tested on: SN12C renal
[49] = tested on: SNB-19 CNS
[50] = tested on: SNB-75 CNS
[51] = tested on: SR leukemia
[52] = tested on: SW-620 colon
[53] = tested on: T-47D breast
[54] = tested on: TK-10 renal
[55] = tested on: U251 CNS
[56] = tested on: UACC-257 melanoma
[57] = tested on: UACC-62 melanoma
[58] = tested on: UO-31 renal

Cc1nc2sc(C(=O)Nc3cccc(Cl)c3C)c(N)c2cc1C(=O)/C=C/c1ccccc1
GI50 [1]: 232 nM
TGI [1]: 907 nM
GI50 [2]: 298 nM
TGI [2]: 1400 nM
GI50 [3]: 476 nM
TGI [3]: 6680 nM
GI50 [4]: 327 nM
TGI [4]: 1090 nM
GI50 [5]: 525 nM
TGI [5]: 1720 nM
GI50 [6]: 417 nM
TGI [6]: 1170 nM
GI50 [7]: 176 nM
TGI [7]: > 50000 nM
GI50 [8]: 979 nM
TGI [8]: 2390 nM
GI50 [9]: 769 nM
TGI [9]: 2840 nM
GI50 [10]: 1120 nM
TGI [10]: 5690 nM
GI50 [11]: 827 nM
TGI [11]: 1570 nM
GI50 [12]: 186 nM
TGI [12]: 707 nM
GI50 [13]: 183 nM
TGI [13]: 817 nM
GI50 [14]: 575 nM
TGI [14]: 2130 nM
GI50 [15]: 339 nM
TGI [15]: 1730 nM
GI50 [16]: 371 nM
TGI [16]: 2110 nM
GI50 [17]: 380 nM
TGI [17]: > 13500 nM
GI50 [18]: 178 nM
TGI [18]: 888 nM
GI50 [19]: 316 nM
TGI [19]: 1100 nM
GI50 [20]: 251 nM
TGI [20]: > 50000 nM
GI50 [21]: 479 nM
TGI [21]: 1500 nM
GI50 [22]: 188 nM
TGI [22]: 711 nM
GI50 [23]: 239 nM
TGI [23]: 1350 nM
GI50 [24]: 315 nM
TGI [24]: 4470 nM
GI50 [25]: 192 nM
TGI [25]: 3320 nM
GI50 [26]: 786 nM
TGI [26]: 2260 nM
GI50 [27]: 111 nM
TGI [27]: 263 nM
GI50 [28]: 760 nM
TGI [28]: > 50000 nM
GI50 [29]: 483 nM
TGI [29]: 1680 nM
GI50 [30]: 755 nM
TGI [30]: 2440 nM
GI50 [31]: 424 nM
TGI [31]: 1740 nM
GI50 [32]: 172 nM
TGI [32]: 999 nM
GI50 [33]: 176 nM
TGI [33]: 656 nM
GI50 [34]: 199 nM
TGI [34]: 737 nM
GI50 [35]: 1230 nM
TGI [35]: 7030 nM
GI50 [36]: 714 nM
TGI [36]: 1740 nM
GI50 [37]: 543 nM
TGI [37]: > 14300 nM
GI50 [38]: 330 nM
TGI [38]: 1540 nM
GI50 [39]: 140 nM
TGI [39]: 465 nM
GI50 [40]: 206 nM
TGI [40]: 801 nM
GI50 [41]: 938 nM
TGI [41]: 5150 nM
GI50 [42]: 446 nM
TGI [42]: 2100 nM
GI50 [43]: 595 nM
TGI [43]: 1430 nM
GI50 [44]: 304 nM
TGI [44]: 8610 nM
GI50 [45]: 641 nM
TGI [45]: 2880 nM
GI50 [46]: 572 nM
TGI [46]: 1430 nM
GI50 [47]: 1440 nM
TGI [47]: 13000 nM
GI50 [48]: 532 nM
TGI [48]: 1830 nM
GI50 [49]: 651 nM
TGI [49]: 3110 nM
GI50 [50]: 217 nM
TGI [50]: 5450 nM
GI50 [51]: 188 nM
GI50 [52]: 206 nM
TGI [52]: 1320 nM
GI50 [53]: 767 nM
TGI [53]: 2400 nM
GI50 [54]: 1060 nM
TGI [54]: 4540 nM
GI50 [55]: 252 nM
TGI [55]: 981 nM
GI50 [56]: 1500 nM
TGI [56]: 12600 nM
GI50 [57]: 303 nM
TGI [57]: 1910 nM
GI50 [58]: 438 nM
TGI [58]: 1100 nM
